Results: patent publication US8853193B2, “Thienopyrimidines containing a substituted alkyl group for pharmaceutical compositions” (Boehringer Ingelheim International GmbH, priority 2010, dated 2014)
Counter-ions that a name gives are not always drawn.

Target: human Mnk2a (Homo sapiens (Human), UniProt Q9HBH9)
Assay: Mnk2a in vitro kinase assay (indirect competitive fluorescence polarization)
Type: biochemical
Conditions: pre-activated GST-Mnk2a 2.5 nM, 20 μM ATP, 30 μM substrate peptide; read-out: MNK2 IC50
Procedure, shortened: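 GST-tagged human Mnk2a expressed in E. coli and glutathione-purified, then activated at 2.5 μM with 150 nM pre-activated NHis-ERK2 and 50 μM ATP in HEPES/KOH pH 7.4, MgCl2, DTT, Brij 78 for 45 min at 30 °C. Phospho-peptide product read by indirect competitive fluorescence polarization against fluorophore-labelled phospho-peptide bound to phospho-specific antibody.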

Chain of human Mnk2a (Q9HBH9 whole entry): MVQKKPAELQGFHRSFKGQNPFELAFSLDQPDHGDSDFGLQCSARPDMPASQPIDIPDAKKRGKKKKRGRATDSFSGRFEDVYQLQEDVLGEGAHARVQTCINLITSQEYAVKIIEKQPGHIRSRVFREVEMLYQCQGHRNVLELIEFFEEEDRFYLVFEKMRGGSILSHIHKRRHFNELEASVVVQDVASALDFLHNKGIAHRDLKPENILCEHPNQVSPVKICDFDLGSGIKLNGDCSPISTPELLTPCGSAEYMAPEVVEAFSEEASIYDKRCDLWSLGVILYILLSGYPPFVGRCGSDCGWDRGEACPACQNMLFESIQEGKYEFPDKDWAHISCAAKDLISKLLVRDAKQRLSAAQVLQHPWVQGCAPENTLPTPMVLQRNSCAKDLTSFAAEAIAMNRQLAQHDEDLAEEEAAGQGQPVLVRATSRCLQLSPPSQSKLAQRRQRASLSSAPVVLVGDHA

SMILES | IC50 [nM]
Cc1c(C(N)=O)sc2ncnc(Nc3cccnc3OCCO)c12 [Compound 29-3, 4-(2-(2-Hydroxyethoxy)pyridin-3-ylamino)-5-methylthieno[2,3-d]pyrimidine-6-carboxamide] | 86
Cc1c(C(=O)NCCCN(C)C)sc2ncnc(Nc3cccnc3OCCO)c12 [Compound 29-4, N-(3-(dimethyl-amino)propyl)-4-(2-(2-hydroxy-ethoxy)pyridin-3-ylamino)-5-methylthieno[2,3-d]pyrimidine-6-carboxamide hydrochloride] | 288
Cc1c(C(=O)O)sc2ncnc(Nc3cccnc3OCC(F)F)c12 [Compound 30-2, 4-(2-(2,2-Difluoroethoxy)pyridin-3-ylamino)-5-methylthieno[2,3-d]pyrimidine-6-carboxylic acid] | 20
Cc1c(C(N)=O)sc2ncnc(Nc3cccnc3OCC(F)F)c12 [Compound 30-3, 4-(2-(2,2-Difluoroethoxy)pyridin-3-ylamino)-5-methyl-thieno[2,3-d]pyrimidine-6-carboxamide] | 18
Cc1c(C(=O)NCCO)sc2ncnc(Nc3cccnc3OCC(F)F)c12 [Compound 30-4, 4-(2-(2,2-difluoroethoxy)-pyridin-3-ylamino)-N-(2-hydroxy-ethyl)-5-methylthieno [2,3-d]pyrimi-dine-6-carboxamide] | 48
Cc1c(C(=O)NCCCN(C)C)sc2ncnc(Nc3cccnc3OCC(F)F)c12 [Compound 30-5, 4-(2-(2,2-difluoroethoxy)-pyridin-3-ylamino)-N-(3-(dimethyl-amino)propyl)-5-methyl-thieno[2,3-d]pyrimidine-6-carbox-amide hydro-chloride] | 57
CCNC(=O)C(C)Oc1cc(F)ccc1Nc1ncnc2sc(C(N)=O)c(C)c12 (centres unmarked) [Compound 31-5, 4-(2-(1-(Ethylamino)-1-oxopropan-2-yloxy)-4-fluorophenylamino)-5-methyl-thieno[2,3-d]pyrimidine-6-carboxamide] | 11
CCNC(=O)C(C)Oc1cc(F)ccc1Nc1ncnc2sc(C(=O)NC)c(C)c12 (centres unmarked) [Compound 31-6, 4-(2-(1-(ethylamino)-1-oxo-propan-2-yloxy)-4-fluorophenyl-amino)-N,5-dimethyl-thieno[2,3-d]pyrimidine-6-carbox-amide] | 13
Cc1c(C(=O)O)sc2ncnc(Nc3ccc(F)cc3OCC3(CC#N)CC3)c12 [Compound 32-2] | 19
Cc1c(C(=O)O)sc2ncnc(Nc3ccc(F)cc3OCC(F)F)c12 [Compound 32-4] | 13
Cc1c(C(=O)O)sc2ncnc(Nc3ccc(F)cc3OCC3CC3(F)F)c12 (centres unmarked) [Compound 32-5] | 8
COCC(CF)Oc1cc(F)ccc1Nc1ncnc2sc(C(=O)O)c(C)c12 (centres unmarked) [Compound 32-6] | 23
Cc1c(C(=O)O)sc2ncnc(Nc3ccc(F)cc3OCCO)c12 [Compound 32-9] | 13
COCC(C)Oc1cc(F)ccc1Nc1ncnc2sc(C(=O)O)c(C)c12 (centres unmarked) [Compound 32-10] | 18
Cc1c(C(=O)O)sc2ncnc(Nc3ccc(F)cc3OCCC(F)(F)F)c12 [Compound 32-11] | 14
Cc1c(C(=O)O)sc2ncnc(Nc3ccc(F)cc3OCC(C)F)c12 (centres unmarked) [Compound 32-12] | 12
Cc1c(C(=O)NCCO)sc2ncnc(Nc3ccc(F)cc3OCC3(CC#N)CC3)c12 [Compound 32-14] | 65
Cc1c(C(=O)NCCCN(C)C)sc2ncnc(Nc3ccc(F)cc3OCC3(CC#N)CC3)c12 [Compound 32-15] | 78
Cc1c(C(=O)NCCCN(C)C)sc2ncnc(Nc3ccc(F)cc3OCC(F)(F)F)c12 [Compound 32-16] | 66
Cc1c(C(N)=O)sc2ncnc(Nc3ccc(F)cc3OCC(F)F)c12 [Compound 32-17] | 16

SMILES | IC50 [nM]
Cc1c(C(=O)NCCO)sc2ncnc(Nc3ccc(F)cc3OCC(F)F)c12 [Compound 32-18] | 30
Cc1c(C(=O)NCCCN(C)C)sc2ncnc(Nc3ccc(F)cc3OCC(F)F)c12 [Compound 32-19] | 23
Cc1c(C(=O)NCCO)sc2ncnc(Nc3ccc(F)cc3OCC3CC3(F)F)c12 (centres unmarked) [Compound 32-20] | 19
Cc1c(C(N)=O)sc2ncnc(Nc3ccc(F)cc3OCC3CC3(F)F)c12 (centres unmarked) [Compound 32-21] | 8
Cc1c(C(=O)NCCCN(C)C)sc2ncnc(Nc3ccc(F)cc3OCC3CC3(F)F)c12 (centres unmarked) [Compound 32-22] | 36
COCC(CF)Oc1cc(F)ccc1Nc1ncnc2sc(C(=O)NCCO)c(C)c12 (centres unmarked) [Compound 32-23] | 26
COCC(CF)Oc1cc(F)ccc1Nc1ncnc2sc(C(=O)NCCCN(C)C)c(C)c12 (centres unmarked) [Compound 32-24] | 25
COCC(CF)Oc1cc(F)ccc1Nc1ncnc2sc(C(=O)NCCO)c(C)c12 (centres unmarked) [Compound 32-25] | 13
Cc1c(C(=O)NCCO)sc2ncnc(Nc3ccc(F)cc3OC(C)CF)c12 (centres unmarked) [Compound 32-27] | 7
Cc1c(C(N)=O)sc2ncnc(Nc3ccc(F)cc3OC(C)CF)c12 (centres unmarked) [Compound 32-28] | 3
Cc1c(C(=O)NCCO)sc2ncnc(Nc3ccc(F)cc3OC(CO)CO)c12 [Compound 32-29] | 170
Cc1c(C(N)=O)sc2ncnc(Nc3ccc(F)cc3OC(CO)CO)c12 [Compound 32-30] | 56
Cc1c(C(=O)NCCCN(C)C)sc2ncnc(Nc3ccc(F)cc3OC(CO)CO)c12 [Compound 32-31] | 146
Cc1c(C(N)=O)sc2ncnc(Nc3ccc(F)cc3OCCO)c12 [Compound 32-32] | 27
Cc1c(C(=O)NCCO)sc2ncnc(Nc3ccc(F)cc3OCCO)c12 [Compound 32-33] | 65
Cc1c(C(=O)NCCCN(C)C)sc2ncnc(Nc3ccc(F)cc3OCCO)c12 [Compound 32-34] | 69
COCC(C)Oc1cc(F)ccc1Nc1ncnc2sc(C(=O)NCCCN(C)C)c(C)c12 (centres unmarked) [Compound 32-35] | 35
COCC(C)Oc1cc(F)ccc1Nc1ncnc2sc(C(=O)NCCO)c(C)c12 (centres unmarked) [Compound 32-36] | 25
COCC(C)Oc1cc(F)ccc1Nc1ncnc2sc(C(N)=O)c(C)c12 (centres unmarked) [Compound 32-37] | 8
Cc1c(C(=O)NCCCN(C)C)sc2ncnc(Nc3ccc(F)cc3OCCC(F)(F)F)c12 [Compound 32-38] | 26

SMILES | IC50 [nM]
Cc1c(C(=O)NCCCN(C)C)sc2ncnc(Nc3ccc(F)cc3OCC(C)F)c12 (centres unmarked) [Compound 32-39] | 35
Cc1c(C(=O)NC2CCN(C)CC2)sc2ncnc(Nc3ccc(F)cc3OC(C)CC(F)(F)F)c12 (centres unmarked) [Compound 32-41] | 25
Cc1c(C(=O)NCCCN2CCCC2)sc2ncnc(Nc3ccc(F)cc3OC(C)CC(F)(F)F)c12 (centres unmarked) [Compound 32-42] | 12
Cc1c(C(=O)NCCC2CCN(C)C2)sc2ncnc(Nc3ccc(F)cc3OC(C)CF)c12 (centres unmarked) [Compound 32-43] | 12
Cc1c(C(=O)NCCCN2CCCC2)sc2ncnc(Nc3ccc(F)cc3OC(C)CF)c12 (centres unmarked) [Compound 32-44] | 6
Cc1c(C(=O)NC2CCN(C)CC2)sc2ncnc(Nc3ccc(F)cc3OC(C)CF)c12 (centres unmarked) [Compound 32-45] | 11
Cc1c(C(=O)O)sc2ncnc(Nc3ccc(F)cc3OC(C)CF)c12 (centres unmarked) [Compound 32.7] | 5
Cc1c(C(=O)NCCCN(C)C)sc2ncnc(Nc3cccnc3OCC3(CC#N)CC3)c12 [Compound 33, 4-(2-((1-(Cyanomethyl)cyclopropyl)methoxy)pyridin-3-ylamino)-N-(3-(dimethylamino)propyl)-5-methylthieno[2,3-d]pyrimidine-6-carboxamide hydrochloride] | 47
Cc1c(C(N)=O)sc2ncnc(Nc3cccnc3OCC3(CC#N)CC3)c12 [Compound 33-4] | 16
Cc1c(C(=O)NCCCN(C)C)sc2ncnc(Nc3cccnc3OCC3CC3(F)F)c12 (centres unmarked) [Compound 34, 4-(2-((2,2-Difluorocyclopropyl)methoxy)pyridin-3-ylamino)-N-(3-(dimethylamino)propyl)-5-methylthieno[2,3-d]pyrimidine-6-carboxamide hydrochloride] | 54
Cc1c(C(N)=O)sc2ncnc(Nc3cccnc3OCC3CC3(F)F)c12 (centres unmarked) [Compound 34-4] | 15
Cc1c(C(N)=O)sc2ncnc(Nc3cccnc3OC(C)C)c12 [Compound 35, 4-(2-Isopropoxypyridin-3-ylamino)-5-methyl-thieno[2,3-d]pyrimidine-6-carboxamide] | 12
Cc1c(C(=O)NCCCN(C)C)sc2ncnc(Nc3cccnc3OC(C)C)c12 [Compound 36, N-(3-(Dimethylamino)propyl)-4-(2-isopropoxypyridin-3-ylamino)-5-methyl-thieno[2,3-d]pyrimidine-6-carboxamide] | 29
Cc1c(C(=O)NCCCN2CCCC2)sc2ncnc(Nc3cccnc3OC(C)C)c12 [Compound 36-1, 4-(2-Isopropoxypyridin-3-ylamino)-5-methyl-N-(3-(pyrrolidin-1-yl)propyl)thieno[2,3-d]pyrimidine-6-carboxamide] | 35
Cc1c(C(=O)NCCCCO)sc2ncnc(Nc3cccnc3OC(C)C)c12 [Compound 36-2, N-(4-Hydroxybutyl)-4-(2-isopropoxypyridin-3-ylamino)-5-methylthieno[2,3-d]pyrimidine-6-carboxamide] | 42
CCNC(=O)c1sc2ncnc(Nc3cccnc3OC(C)C)c2c1C [Compound 36-3] | 26
Cc1c(C(=O)NCCCN2CCOCC2)sc2ncnc(Nc3cccnc3OC(C)C)c12 [Compound 36-4] | 44
Cc1c(C(=O)NCC2CNCCO2)sc2ncnc(Nc3cccnc3OC(C)C)c12 (centres unmarked) [Compound 36-5, 4-(2-Isopropoxypyridin-3-ylamino)-5-methyl-N-(morpholin-2ylmethyl) thieno[2,3-d]pyrimidine-6-carboxamide] | 25
Cc1c(C(=O)N[C@H]2C[C@@H]2N)sc2ncnc(Nc3cccnc3OC(C)C)c12 [Compound 36-6, N-((1S,2S)-2-Aminocyclopropyl)-4-(2-isopropoxypyridin-3-ylamino)-5-methylthieno[2,3-d]pyrimidine-6-carboxamide] | 55
